Measurements taken from US10065990B2, “Cyclic peptide compound, and preparation method, pharmaceutical composition and use thereof” (HANGZHOU GUANYU BIO-MEDICAL CO., LTD, priority 2013, dated 2018).
Where two headings read alike, the source gives them in different places.

Tests used:
[1] = molecular target: T1, HDAC8 (Homo sapiens, UniProt Q9BY41); assay: HDAC biochemical activity measurement (fluorescent substrate deacetylation); conditions: 37° C. 30 minutes
T1 sequence (Q9BY41 1-377): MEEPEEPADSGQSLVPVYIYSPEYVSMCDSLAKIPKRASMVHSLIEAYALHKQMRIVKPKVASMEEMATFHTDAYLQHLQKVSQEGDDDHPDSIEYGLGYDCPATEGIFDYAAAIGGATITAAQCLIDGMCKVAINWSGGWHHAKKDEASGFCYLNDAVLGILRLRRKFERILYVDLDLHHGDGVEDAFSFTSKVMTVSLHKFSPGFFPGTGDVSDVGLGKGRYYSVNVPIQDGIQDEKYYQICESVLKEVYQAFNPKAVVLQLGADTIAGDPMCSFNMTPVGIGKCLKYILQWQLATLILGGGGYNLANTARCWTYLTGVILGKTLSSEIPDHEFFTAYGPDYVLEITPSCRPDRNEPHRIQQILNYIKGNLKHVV

[2] = molecular target: HDAC1 (Homo sapiens, UniProt Q13547); assay: as above;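 note: fluorogenic acetyl-lysine substrate (20 µM) deacetylated by HDAC1, then developer releases fluorophore read at 360 nm excitation and 460 nm emission, inhibitor incubated 30 min at 37 °C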
HDAC1, sequence (Q13547 whole entry, species assumed): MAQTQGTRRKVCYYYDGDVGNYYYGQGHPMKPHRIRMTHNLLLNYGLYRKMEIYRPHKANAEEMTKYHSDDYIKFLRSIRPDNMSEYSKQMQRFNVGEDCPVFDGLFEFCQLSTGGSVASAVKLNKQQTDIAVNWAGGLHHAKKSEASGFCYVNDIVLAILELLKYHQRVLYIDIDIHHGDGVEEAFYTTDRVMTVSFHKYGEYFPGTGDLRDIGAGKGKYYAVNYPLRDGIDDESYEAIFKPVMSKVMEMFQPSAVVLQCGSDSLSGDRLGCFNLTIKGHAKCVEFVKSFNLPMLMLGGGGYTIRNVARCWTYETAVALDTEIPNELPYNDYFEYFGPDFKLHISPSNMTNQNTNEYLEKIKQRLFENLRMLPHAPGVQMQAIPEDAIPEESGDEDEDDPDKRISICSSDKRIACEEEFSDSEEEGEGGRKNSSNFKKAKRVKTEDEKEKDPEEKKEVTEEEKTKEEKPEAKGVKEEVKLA
Procedure: The chemical activity of the compound is determined according to the degree of deacetylation inhibition of the HDAC enzyme. This experiment measured the degree of deacetylation related to tumor proliferation and metastasis of HDAC1, HDAC2, HDAC3, HDAC8, HDAC11 five subtypes HDAC enzymes. After the substrate containing an acetylated lysine side chain and HDAC enzyme are labeled with a fluorescent label, the fluorescent substrate is de acetyl. The fluorescent labeled substrate is cleaved by the enzyme, and the fluorescent substance is released, which generates 460 nm emission light under the excitation of 360 nm light.
HDAC substrate was diluted with reaction buffer to 200M (reaction concentration of 20M), the HDAC enzyme was diluted to the appropriate concentration, then added different concentrations of the test compounds and acted at 37° C. 30 minutes, and then added the same volume of 2-times concentration substrate developing solution (developer), incubated at room temperature for 15 minutes.

[3] = test system: MCF-7 (human breast cancer cells); assay: MTT cancer cell growth inhibition; assay type: cell-based; conditions: Homo sapiens, MCF7, 72 h
In short: (§1)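 MTT viability, 570 nm, GI50. Cells 1500/well; compound 72 h at final 10^−5–10^−10 M in triplicate.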

[4] = test system: BGC-823 (human gastric cancer cells); assay: MTT cancer cell growth inhibition; assay type: cell-based; conditions: Homo sapiens, BGC-823, 72 h, MTT
In short: as §1

[5] = test system: Bel-7402 (human hepatoma cells); assay: MTT cancer cell growth inhibition; assay type: cell-based; conditions: Homo sapiens, Bel-7402, 72 h, MTT, 72 hours incubation, Bel-7402 cells; read-out: GI50 Bel-7402
In short: as §1

[6] = test system: U937 (human leukemia cells); assay: MTT cancer cell growth inhibition; assay type: cell-based; conditions: Homo sapiens, U-937, 72 h, MTT
In short: as §1

[7] = test system: MOLT-4 (human acute lymphoblastic leukemia cells); assay: MTT cancer cell growth inhibition; assay type: cell-based; conditions: Homo sapiens, MOLT-4, 72 h, MTT
In short: as §1

[8] = test system: DU145 (human prostate cancer cells); assay: MTT cancer cell growth inhibition; assay type: cell-based; conditions: Homo sapiens, DU-145, 72 h, MTT
In short: as §1

[9] = test system: lncap (prostate cancer cells); assay: MTT cancer cell growth inhibition; assay type: cell-based; conditions: Homo sapiens, LNCaP, 72 h, MTT
In short: as §1

[10] = test system: PANC-1 (Pac-1, human pancreatic cancer cells); assay: MTT cancer cell growth inhibition; assay type: cell-based; conditions: Homo sapiens, PANC-1, 72 h, MTT
In short: as §1

[11] = test system: A549 (human lung cancer cells); assay: MTT cancer cell growth inhibition; assay type: cell-based; conditions: Homo sapiens, A549, 72 h, MTT
In short: as §1

[12] = test system: Huh-7 (human hepatoma cells); assay: MTT cancer cell growth inhibition; assay type: cell-based; conditions: Homo sapiens, Huh-7, 72 h, MTT, 72 hours incubation, Huh-7 cells; read-out: GI50 Huh-7
In short: as §1

[13] = molecular target: HDAC3 (Homo sapiens, UniProt O15379); assay: HDAC biochemical activity measurement (fluorescent substrate deacetylation);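 note: fluorogenic acetyl-lysine substrate (20 µM) deacetylated by HDAC3, then developer added for 15 min at room temperature, release of fluorophore read at excitation 360 nm, emission 460 nm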
HDAC3, sequence (O15379 whole entry, species assumed): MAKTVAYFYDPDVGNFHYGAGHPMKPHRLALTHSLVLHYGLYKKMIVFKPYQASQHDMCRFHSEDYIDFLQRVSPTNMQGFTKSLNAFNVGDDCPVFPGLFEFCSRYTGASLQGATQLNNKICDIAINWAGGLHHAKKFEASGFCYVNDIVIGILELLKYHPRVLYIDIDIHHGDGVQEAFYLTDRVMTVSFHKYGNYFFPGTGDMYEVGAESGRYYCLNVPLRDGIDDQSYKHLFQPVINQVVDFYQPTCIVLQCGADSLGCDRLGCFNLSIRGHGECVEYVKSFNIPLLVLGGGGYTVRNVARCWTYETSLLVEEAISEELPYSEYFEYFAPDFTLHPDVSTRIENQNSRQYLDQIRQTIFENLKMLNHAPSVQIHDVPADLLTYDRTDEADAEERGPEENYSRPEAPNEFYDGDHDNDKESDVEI
HDAC3, sequence (Q9Y618 395-489 partner limits assumed, species assumed): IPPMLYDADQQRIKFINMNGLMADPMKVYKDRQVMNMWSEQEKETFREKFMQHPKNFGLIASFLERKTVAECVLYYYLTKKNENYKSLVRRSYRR

[14] = HDAC1, 37° C. 30 minutes, read-out: IC50 HDAC1
[15] = Table 2, read-out: IC50 HDAC1, a (compounds of the present invention)
[16] = 72 hours, present invention, read-out: GI50 MCF7, a
[17] = MCF-7 cells, 72 hours incubation, read-out: GI50 MCF
[18] = BGC-823 cells, 72 hours incubation, read-out: GI50 BG
[19] = 72 hours, present invention, read-out: GI50 BGC823, a
[20] = 72 hours, present invention, read-out: GI50 U937, a
[21] = U937 cells, 72 hours incubation, read-out: GI50 U93
[22] = MOLT-4 cells, 72 hours incubation, read-out: GI50 Mol
[23] = 72 hours, present invention, read-out: GI50 Molt-4, a
[24] = DU145 cells, 72 hours incubation, read-out: GI50 Du1
[25] = 72 hours, present invention, read-out: GI50 Du145, a
[26] = 72 hours, present invention, read-out: GI50 lncap, a
[27] = lncap cells, 72 hours incubation, read-out: GI50 lnca
[28] = 72 hours, present invention, read-out: GI50 PANC-1, a
[29] = PANC-1 cells, 72 hours incubation, read-out: GI50 PAN
[30] = A549 cells, 72 hours incubation, read-out: GI50 A54
[31] = 72 hours, present invention, read-out: GI50 A549, a
[32] = read-out: IC50 HDAC3, HDAC3, 37° C. 30 minutes
[33] = 72 hours incubation, read-out: GI50 MCF
[34] = 72 hours incubation, read-out: GI50 BG
[35] = 72 hours incubation, read-out: GI50 U93
[36] = 72 hours incubation, read-out: GI50 Mol
[37] = 72 hours incubation, read-out: GI50 Du1
[38] = 72 hours incubation, read-out: GI50 lnca
[39] = 72 hours incubation, read-out: GI50 PAN
[40] = 72 hours incubation, read-out: GI50 A54

Row | SMILES | IC50 [1] [nM] | IC50 [2, 14] [nM] | IC50 [2, 15] [nM] | GI50 [3, 16] [nM] | GI50 [3, 17] [nM] | GI50 [4, 18] [nM] | GI50 [4, 19] [nM] | GI50 [5] [nM] | GI50 [6, 20] [nM] | GI50 [6, 21] [nM] | GI50 [7, 22] [nM] | GI50 [7, 23] [nM] | GI50 [8, 24] [nM] | GI50 [8, 25] [nM] | GI50 [9, 26] [nM] | GI50 [9, 27] [nM] | GI50 [10, 29] [nM] | GI50 [11, 30] [nM] | GI50 [12] [nM] | IC50 [13] [nM] | further results
1 | C/C=C1\NC(=O)c2cccc(n2)CNC(=O)C[C@@H](/C=C/CCSC(=O)CCCCCCC)OC(=O)[C@@H](C)NC1=O [Compound 236] | 67 | 43 | < 50 | 760 | 760 | 90 | 93 | 75 | 77 | 70 | 860 | 860 | 90 | 91 | 530 | 50 | 210 | 510 | 67 | – | GI50 [10, 28]: 210 nM; GI50 [11, 31]: 510 nM; IC50 [13, 32]: 66 nM
2 | C/C=C1\NC(=O)c2nc(ccc2F)CNC(=O)C[C@@H](/C=C/CCSC(C)=O)OC(=O)[C@H](C)NC1=O [Example 63] | 29 | 41 | – | – | – | – | – | 94 | – | – | – | – | – | – | – | – | – | – | 49 | 39 | GI50 [3, 33]: 50 nM; GI50 [4, 34]: 50 nM; GI50 [6, 35]: 30 nM; GI50 [7, 36]: 40 nM; GI50 [8, 37]: 50 nM; GI50 [9, 38]: 40 nM; GI50 [10, 39]: 90 nM; GI50 [11, 40]: 50 nM
3 | C/C=C1\NC(=O)c2cccc(n2)CCNC(=O)C[C@@H](/C=C/CCSC(C)=O)OC(=O)[C@H](C(C)C)NC1=O [Example 26] | 64 | 91 | – | – | – | – | – | 97 | – | – | – | – | – | – | – | – | – | – | 51 | 46 | GI50 [3, 33]: 53700 nM; GI50 [4, 34]: 5400 nM; GI50 [6, 35]: 9500 nM; GI50 [7, 36]: 3350 nM; GI50 [8, 37]: 11700 nM; GI50 [9, 38]: 9000 nM; GI50 [10, 39]: 770 nM; GI50 [11, 40]: 38900 nM
4 | C/C=C1\NC(=O)c2cccc(n2)CNC(=O)C[C@@H](/C=C/CCSC(=O)CCCCCCC)OC(=O)[C@H](c2ccc(O)cc2)NC1=O [Compound 238] | 78 | 44 | < 50 | 23 | 20 | 140 | 140 | 31 | 15 | 10 | – | 8 | 10 | 12 | 110 | 110 | 70 | 10 | 55 | – | GI50 [10, 28]: 77 nM; GI50 [11, 31]: 16 nM; IC50 [13, 32]: 59 nM
5 | C/C=C1\NC(=O)c2cc(SCCC)cc(n2)CNC(=O)C[C@@H](/C=C/CCSC(=O)CCCCCCC)OC(=O)[C@H](CC)NC1=O [Compound 175] | 69 | 41 | – | – | 20 | 20 | – | 105 | – | 40 | 20 | – | 30 | – | – | 80 | 50 | 100 | 27 | 11 | –
